Measured values taken from BigSolDB 2.1.

CC(=O)c1ccc(O)cc1O
solubility (mole fraction)
Settings	in benzene	in ethanol	in ethyl acetate	in isobutanol	in isopropanol	in methanol	in methyl acetate	in n-butanol	in n-propanol	in n-propyl acetate
293.15 K	0.00045	0.118	0.118	0.0782	0.13	0.103	0.114	0.104	0.106	0.11
298.15 K	0.00055	0.131	0.129	0.091	0.144	0.117	0.126	0.118	0.118	0.12
303.15 K	0.00067	0.146	0.139	0.107	0.162	0.132	0.141	0.133	0.135	0.129
308.15 K	0.00082	0.162	0.152	0.122	0.178	0.148	0.155	0.153	0.151	0.143
313.15 K	0.00102	0.177	0.166	0.139	0.194	0.163	0.168	0.172	0.167	0.155
318.15 K	0.00125	0.195	0.18	0.156	0.211	0.183	0.182	0.191	0.18	0.171
323.15 K	0.0015	0.216	0.199	0.18	0.231	0.203	0.201	0.214	0.195	0.189
328.15 K	0.00178	0.235	0.216	0.199	0.25	0.228	0.212	0.233	0.216	0.205
333.15 K	0.00207	0.257	0.236	0.221	0.271	0.253	–	0.253	0.233	0.222
